This is an account of results in patent publication US5783599A, “Methods of treating cancer and viral infections with 5-iodo-6-amino-and 5-iodo-6-nitroso-1 2-benzopyrones” (priority 1996, dated 1998).

Series [1] addresses T1, ADPRT (Bos taurus, UniProt P18493). The following applies: literature; cited from earlier work.
Series [2] is described as follows: Metabolic conversion in liver / intracellular oxidation and cell penetration. The following applies: nitro oxidation product formed in liver.
For series [3], the target named is T1, ADPRT. The series can be described thus: Inhibition of ADPRT / binding to ADPRT (I50, Ki). The series is classed as biochemical. The source says:
Their biological action spectrum is nearly the same as that of 6-ABP, except that their potency is about 10-50 times greater. Such potency is particularly well documented in case of 5-I-6-ABP against malignant cell proliferation in cell cultures. […] This effectivity is 10-20 times higher than 6-ABP.
The 6-amino group of 5-I-6-ABP is rapidly oxidized intracellularly to 5-I-6-NOBP which, by binding to the Zn^2+ -finger domain of ADPRT, destabilizes the tightly chelated Zn^2+ by the oxidation of the thiol groups in the Zn^2+ finger polypeptide, thus ejecting Zn^2+. In this way, 5-I-6-ABP effectively inactivates the ADPR-forming activity of this protein and converts it to a DNA binding protein that reacts with "internal domains" of certain double stranded DNA (Biochemistry, 28:5670 (1989); Biochem. Biophys. Res. Commun., 167:842 (1990)). These DNA domains include abnormally replicating DNA structures in tumorigenic or proliferative cells and in viral DNAs, probably at the integration sites.

The subject of series [4] is malignant cell proliferation. The series can be described thus: Malignant cell proliferation / cytostatic activity in cell cultures, overall. The series is classed as cell-based. From the text: (§1) In this study, the following cell lines were used. Cell line CG I, a non-tumorigenic hybrid of HeLa cells with normal human fibroblasts, and its is tumorigenic revertant counterpart, CG1 III, as described in Science, 215:252 (1982). These cells were obtained from UC Irvine. […] HEp-2 human epidermoid carcinoma cells were provided by Dr. L. Aurelian (University of Maryland). E-Ras cells were-obtained from University of Cincinnati and represent an endothelial cell line transfected with pSV2neo plasmid as described in Proc. Natl. Acad. Sci., 76:1373 (1979). This cell line contains several copies of the activated human Ha-ras oncogene.
Cells were seeded to 2 cm^2 wells of Falcon tissue culture plates at a density of 6000±650 cells per well. Inhibitors were added to the seeding suspensions from stock solutions of 100 mM 6-ABP in water or 50 mM 5-1-6-ABP in dimethylsulfoxide (DMSO). […] Growth media were Dulbeccos MEM (lines #1 and 2), and Dulbeccols Modified Eagle's Medium, containing 10% fetal bovine serum and penicillin (100 μg/ml) plus streptomycin (100 μg/ml). After incubation for 72 hours at 37° C. in a 5% CO2 humidified atmosphere, incorporation of [^3 H] deoxyadenosine (ICN, 18 Ci/mmol) into DNA was tested as follows: [^3 H] deoxyadenosine (450,000 dpm in 40 μl) of medium was added per well (each containing 600 μl of medium) and incubation at 37° C. was continued for 1 hour, followed by removal of the medium and rinsing of the wells 3 times with phosphate-buffered saline. Cells were then lysed in 500 μl of 0.06M NaOH and the acid precipitable radioactivity was determined.

Series [5] relates to Rat-1 cells. Put plainly: DNA synthesis ([3H]deoxyadenosine incorporation) in Rat-1 cells. Format: cell-based. The following applies: 6-ABP 0.5 mM, 72 h, N=5.
Text: as §1
(§2) Cells were seeded to 2 cm^2 wells of Falcon tissue culture plates at a density of 6000±650 cells per well. Inhibitors were added to the seeding suspensions from stock solutions of 100 mM 6-ABP in water or 50 mM 5-1-6-ABP in dimethylsulfoxide (DMSO). […] Growth media were Dulbeccos MEM (lines #1 and 2), and Dulbeccols Modified Eagle's Medium, containing 10% fetal bovine serum and penicillin (100 μg/ml) plus streptomycin (100 μg/ml). […] Cells were then lysed in 500 μl of 0.06M NaOH and the acid precipitable radioactivity was determined.

Series [6] concerns HEp-2 cells. The series can be described thus: DNA synthesis ([3H]deoxyadenosine incorporation) in HEp-2 cells. Format: cell-based. The following applies: Homo sapiens, 6-ABP 0.5 mM, 72 h, N=5, read-out: % Inhibition of DNA synthesis.
Text: as §1, §2

The test system of series [7] is GC1 III cells. The series can be described thus: DNA synthesis ([3H]deoxyadenosine incorporation) in CG1 III cells. Format: cell-based. The following applies: Homo sapiens, 6-ABP 0.5 mM, 72 h, N=5.
Text: as §1, §2

In series [8] the test system is HIV. The series can be described thus: Inhibition of syncytia formation by HIV in MT-2 cells. Format: cell-based.
For series [9], the system named is AA-2 or MT-2 cells. Put plainly: Cell count and viability of AA-2 and MT-2 cells. Format: cell-based, human. On the procedure:
The effects of 5-I-6-ABP treatment of AA-2 and MT-2 cells was directly analyzed by cell count and viability tests including cloning efficiency and trypan blue uptake. The AA2 or MT-2 cell culture having initial cell count per well 0.5×10^5 was submitted to treatment with 3 mM of 6-ABP and or with 0.1 mM of 5-I-6-ABP and compared to untreated cell culture. The cells were counted 4 days after the treatment with 5-I-6-ABP and 6-ABP.

For series [10], the system named is human lymphoblasts. The series can be described thus: Lymphoblast viability. Format: cell-based. Here is the method:
The viability of lymphoblasts is measured by incubating the cells exposed to IL-2, HIV and to 6-ABP with H3-thymidine for 6 hours on the sixth day of culture and determining the amount of cpm incorporated per 100,000 cells placed in culture.

Series [11] has as its system 14C cells. Put plainly: DNA synthesis ([3H]deoxyadenosine incorporation) in 14C cells. The following applies: Rattus norvegicus, 6-ABP 0.5 mM, 72 h, N=5, read-out: % Inhibition of DNA synthesis. The series is classed as cell-based.
Text: as §1, §2

The test system of series [12] is CG1 I cells. The series can be described thus: DNA synthesis ([3H]deoxyadenosine incorporation) in CG1 I cells. The series is classed as cell-based. The following applies: Homo sapiens, 6-ABP 0.5 mM, 72 h, N=5.
Text: as §1, §2

The subject of series [13] is E-Ras cells. Put plainly: DNA synthesis ([3H]deoxyadenosine incorporation) in E-Ras cells. The series is classed as cell-based. The following applies: 6-ABP 0.5 mM, 72 h, N=5.
Text: as §1, §2

The conditions of series [14]: literature; cited from earlier work.

Entries after “also recorded” stand apart in the source; their conditions may differ.

T1 sequence (P18493 whole entry): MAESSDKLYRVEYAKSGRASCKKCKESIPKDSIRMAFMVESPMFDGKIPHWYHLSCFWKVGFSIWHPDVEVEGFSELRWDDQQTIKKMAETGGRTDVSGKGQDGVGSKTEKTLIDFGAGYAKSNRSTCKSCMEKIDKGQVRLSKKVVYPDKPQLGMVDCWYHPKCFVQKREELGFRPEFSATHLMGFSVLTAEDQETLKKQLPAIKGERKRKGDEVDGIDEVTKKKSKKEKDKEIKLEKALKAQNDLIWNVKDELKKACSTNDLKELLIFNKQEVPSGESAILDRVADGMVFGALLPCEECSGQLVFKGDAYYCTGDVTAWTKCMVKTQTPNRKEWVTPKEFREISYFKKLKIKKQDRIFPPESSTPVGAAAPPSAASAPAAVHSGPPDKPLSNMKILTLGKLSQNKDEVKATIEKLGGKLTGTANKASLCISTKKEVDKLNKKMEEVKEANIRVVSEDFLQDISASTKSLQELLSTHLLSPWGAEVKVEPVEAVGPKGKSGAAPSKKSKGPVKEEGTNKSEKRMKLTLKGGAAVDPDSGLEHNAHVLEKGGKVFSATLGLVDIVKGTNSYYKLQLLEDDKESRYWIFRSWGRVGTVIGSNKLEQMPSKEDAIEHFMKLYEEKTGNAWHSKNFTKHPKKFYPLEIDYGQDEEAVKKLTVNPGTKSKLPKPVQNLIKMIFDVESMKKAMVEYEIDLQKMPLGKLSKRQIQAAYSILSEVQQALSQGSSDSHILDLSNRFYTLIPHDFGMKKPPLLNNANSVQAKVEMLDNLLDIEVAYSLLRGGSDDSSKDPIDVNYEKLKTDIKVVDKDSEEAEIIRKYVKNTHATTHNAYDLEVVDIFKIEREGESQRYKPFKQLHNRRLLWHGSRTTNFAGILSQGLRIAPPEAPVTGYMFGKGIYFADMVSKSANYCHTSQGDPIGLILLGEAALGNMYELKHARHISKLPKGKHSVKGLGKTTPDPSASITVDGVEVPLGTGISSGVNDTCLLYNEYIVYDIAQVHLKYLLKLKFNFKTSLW

Consider `O=c1ccc2ccccc2o1` [1,2-benzopyrone (coumarin), 1,2-benzopyrone], for which the “ADPRT ligand” value in series [1] is “inhibitory ligand”.

As for `O=c1ccc2c(I)c([N+](=O)[O-])ccc2o1` [5-I-6-nitro-NBP, 5-iodo-6-nitro-1,2-benzopyrone], in series [2], the “biochemical activity” value is “inactive”.

For the compound `O=Nc1ccc2oc(=O)ccc2c1I` [5-I-6-NOBP, 5-iodo-6-nitroso-1,2-benzopyrone], the “inhibition of / binding to ADPRT” value in series [3] is “binds with high affinity to zinc-fingers of enzyme ADPRT; also recorded: potent inhibitor of ADPRT”. The “potency relative to 6-ABP” value in series [4] (biological action spectrum, vs 6-ABP) is 10-50 times.

As usually defined, the IC50 is the concentration that inhibits the measured activity by half. Lower therefore signals inhibition by little substance. Broadly, the Ki is a measure of affinity in units of concentration, obtained from inhibition or displacement. As a reminder, the inhibition is the drop in the measured response relative to a control, in per cent. In series [3], `Nc1ccc2oc(=O)ccc2c1` [6-ABP, 6-amino-1,2-benzopyrone, reference compound] returned an IC50 of 125 µM. The same compound returned a Ki in [3] of 47 µM. Also, the inhibition at 500 µM in series [5] was -30.5%; in series [7] it was -37.5%; in series [12] it was -19.8%; in series [13] it was -69.5%. The percent change in DNA synthesis vs control at 500 µM in series [6] was -47.6%. In series [8], the “inhibition of syncytia formation” value is “complete”. Further, the “ADPRT ligand” value in series [1] is reported as “specifically bind to ADPRT”. Moreover, the cytotoxicity result in [9] was “does not involve cytotoxicity”. In addition, the “effect on cell proliferation” value in series [9] (3 mM 6-ABP, 0.1 mM 5-I-6-ABP, 4 days) is “inhibitory effect on cell proliferation”. In addition, the “toxic effects in viability test” value in [9] (3 mM 6-ABP, 4 days) is given as “no evidence of toxic effects”. In addition, the “cell damage or death” value in [10] is listed as “without detectable cell damage or death”. The percent change in DNA synthesis versus control at 500 µM in [11] is -53.3%. The “sedative, hypnotic, hypothermal, antipyretic, hypotensive, adrenolytic action” value in [14] is on record as “No significant action”. In series [4] (500 μM 6-ABP vs 50 μM 5-I-6-ABP, vs 500 μM as printed), the “effectivity of 500 μM 6-ABP compared with 5-I-6-ABP” value is listed as “the same effectivity”.
